Measured values from EPA's CvTdb concentration-time database.

Experiments:
Experiment in all cases: concentration in plasma after dosing
Rat [1] = conditions: iv
Rat [2] = conditions: 10 min; dosed: Di-n-butyl phthalate; 20 mg/kg; iv; Male; Sprague-Dawley
Rat [3] = conditions: 10 min; dosed: Di-n-butyl phthalate; 20 mg/kg; iv; Male; Sprague-Dawley; remark: listed apart in the source
Rat [4] = conditions: 5 min; dosed: Di-n-butyl phthalate; 20 mg/kg; iv; Male; Sprague-Dawley
Rat [5] = conditions: 5 min; dosed: Di-n-butyl phthalate; 20 mg/kg; iv; Male; Sprague-Dawley; remark: listed apart in the source
Rat [6] = conditions: dosed: perfluorohexane-1-sulphonic acid – potassium salt, 4 mg/kg, iv, Female, F344
Rat [7] = conditions: dosed: perfluorohexane-1-sulphonic acid – potassium salt, 4 mg/kg, iv, Female, F344; remark: listed apart in the source
Rat [8] = conditions: dosed: perfluorohexane-1-sulphonic acid – potassium salt, 4 mg/kg, iv, Female, F344; remark: listed apart in the source
Rat [9] = conditions: dosed: perfluorohexane-1-sulphonic acid – potassium salt, 4 mg/kg, iv, Female, F344; remark: listed apart in the source
Rat [10] = conditions: dosed: perfluorohexane-1-sulphonic acid – potassium salt, 4 mg/kg, iv, Female, F344; remark: listed apart in the source
Rat [11] = conditions: dosed: perfluorohexane-1-sulphonic acid – potassium salt, 4 mg/kg, iv, Female, F344; remark: listed apart in the source
Rat [12] = conditions: dosed: perfluorohexane-1-sulphonic acid – potassium salt, 4 mg/kg, iv, Female, F344; remark: listed apart in the source
Rat [13] = conditions: dosed: perfluorohexane-1-sulphonic acid – potassium salt, 4 mg/kg, iv, Female, F344; remark: listed apart in the source
Rat [14] = conditions: dosed: perfluorohexane-1-sulphonic acid – potassium salt, 4 mg/kg, iv, Female, F344; remark: listed apart in the source
Rat [15] = conditions: dosed: perfluorohexane-1-sulphonic acid – potassium salt, 4 mg/kg, iv, Female, F344; remark: listed apart in the source
Rat [16] = conditions: dosed: perfluorohexane-1-sulphonic acid – potassium salt, 4 mg/kg, iv, Female, F344; remark: listed apart in the source
Rat [17] = conditions: dosed: perfluorohexane-1-sulphonic acid – potassium salt, 4 mg/kg, iv, Female, F344; remark: listed apart in the source
Rat [18] = conditions: 1 h; dosed: perfluorohexane-1-sulphonic acid – potassium salt; 4 mg/kg; iv; Female; F344
Rat [19] = conditions: dosed: perfluorohexane-1-sulphonic acid – potassium salt, 4 mg/kg, iv, Female, F344; remark: listed apart in the source
Rat [20] = conditions: dosed: perfluorohexane-1-sulphonic acid – potassium salt, 4 mg/kg, iv, Female, F344; remark: listed apart in the source
Rat [21] = conditions: dosed: perfluorohexane-1-sulphonic acid – potassium salt, 4 mg/kg, iv, Female, F344; remark: listed apart in the source
Rat [22] = conditions: 192 h; dosed: perfluorohexane-1-sulphonic acid – potassium salt; 4 mg/kg; iv; Female; F344
Rat [23] = conditions: dosed: perfluorohexane-1-sulphonic acid – potassium salt, 4 mg/kg, iv, Female, F344; remark: listed apart in the source
Rat [24] = conditions: dosed: perfluorohexane-1-sulphonic acid – potassium salt, 4 mg/kg, iv, Female, F344; remark: listed apart in the source
Rat [25] = conditions: dosed: perfluorohexane-1-sulphonic acid – potassium salt, 4 mg/kg, iv, Female, F344; remark: listed apart in the source
Rat [26] = conditions: dosed: perfluorohexane-1-sulphonic acid – potassium salt, 4 mg/kg, iv, Female, F344; remark: listed apart in the source
Rat [27] = conditions: dosed: perfluorohexane-1-sulphonic acid – potassium salt, 4 mg/kg, iv, Female, F344; remark: listed apart in the source
Rat [28] = conditions: dosed: perfluorohexane-1-sulphonic acid – potassium salt, 4 mg/kg, iv, Female, F344; remark: listed apart in the source
Rat [29] = conditions: dosed: perfluorohexane-1-sulphonic acid – potassium salt, 4 mg/kg, iv, Female, F344; remark: listed apart in the source
Rat [30] = conditions: dosed: perfluorohexane-1-sulphonic acid – potassium salt, 4 mg/kg, iv, Female, F344; remark: listed apart in the source

CCCCOC(=O)c1ccccc1C(=O)OCCCC [Di-n-butyl phthalate]
Rat [1], dosed: Di-n-butyl phthalate, 20 mg/kg, Male, Sprague-Dawley
Conditions	concentration in plasma [µg/mL]
5 min	9.37
10 min	3.52
20 min	0.957

Conditions	concentration in plasma [µg/mL]
Rat [2]	2.95
Rat [3]	4.22
Rat [4]	10.7
Rat [5]	1.21

O=S(=O)([O-])C(F)(F)C(F)(F)C(F)(F)C(F)(F)C(F)(F)C(F)(F)F.[K+] [perfluorohexane-1-sulphonic acid – potassium salt]
Rat [1], dosed: perfluorohexane-1-sulphonic acid – potassium salt, 4 mg/kg, Female, F344
Conditions	concentration in plasma [µg/mL]
0.25 h	3.9
1 h	3.19
3 h	1.89
5 min	5.26
6 h	2.39
12 h	2.23
24 h	2.03
192 h	1.2
528 h	0.519
864 h	0.551

Conditions	concentration in plasma [µg/mL]
Rat [6], 1 h	3.15
Rat [6], 48 h	1.13
Rat [7], 1 h	3.84
Rat [7], 48 h	1
Rat [8], 0.5 h	3.97
Rat [8], 24 h	2.2
Rat [8], 1200 h	0.494
Rat [9], 3 h	3.29
Rat [9], 96 h	0.566
Rat [10], 0.5 h	3.61
Rat [10], 12 h	2.48
Rat [10], 864 h	0.496
Rat [11], 5 min	0.842
Rat [11], 6 h	0.298
Rat [12], 0.25 h	4.18
Rat [12], 6 h	2.53
Rat [12], 864 h	0.818
Rat [13], 0.25 h	4.18
Rat [13], 12 h	1.75
Rat [14], 5 min	5.59
Rat [14], 6 h	2.44
Rat [14], 192 h	0.126
Rat [15], 0.25 h	5.15
Rat [15], 12 h	2.04
Rat [16], 0.5 h	2.9
Rat [16], 12 h	2.09
Rat [16], 1200 h	0.288
Rat [17], 3 h	2.55
Rat [17], 96 h	0.387
Rat [19], 1 h	3.18
Rat [19], 48 h	0.842
Rat [20], 3 h	2.91
Rat [20], 5 min	6.77
Rat [20], 528 h	0.879
Rat [21], 0.5 h	4.14
Rat [21], 24 h	1.65
Rat [23], 0.5 h	4.01
Rat [23], 24 h	1.45
Rat [24], 0.5 h	4.2
Rat [24], 24 h	1.37
Rat [25], 0.25 h	4.33
Rat [25], 12 h	1.84
Rat [26], 5 min	6.14
Rat [26], 6 h	2.33
Rat [26], 192 h	0.118
Rat [27], 3 h	2.38
Rat [27], 5 min	4.71
Rat [27], 192 h	1.45
Rat [28], 3 h	3.15
Rat [28], 96 h	0.484
Rat [29], 1 h	3.14
Rat [29], 24 h	2.33
Rat [29], 1200 h	0.393
Rat [30], 0.25 h	2.05
Rat [30], 6 h	1.44
Rat [30], 528 h	0.491

Conditions	concentration in plasma [µg/mL]
Rat [18]	0.17
Rat [22]	1.39
